# Key:
# Sprague Dawley (SD) rats = test: Histopathology, 4-week subacute toxicity study; type: in vivo, rat; conditions: for Epididymis: Cell debris, lumen, Grade: 1 (minimal), animals / Epididymis: Cell debris, lumen, Grade: 3 (moderate), animals / Epididymis: Cell debris, lumen, Total Incidence / Epididymis: Sperm, decreased, lumen, Grade: 4 (marked), animals / Epididymis: Sperm, decreased, lumen, Total Incidence / Testis: Degeneration, tubule, Grade: 2 (mild), animals / Testis: Degeneration, tubule, Total Incidence: M
# Description: The tissues in the Table 2 were preserved in 10% neutral phosphate-buffered formalin. Bilateral eyes, optic nerves, testes, epididymides and Harderian glands were fixed in modified Davidson’s solution. For all the above tissues in all groups, sampling, paraffin embedding, sectioning and hematoxylin-eosin staining was performed, followed by histopathology examination microscopically with light microscopy.
# µ-opioid receptor (MOR) = test system: µ-opioid receptor (MOR); set-up: method as in Yang et al., 2022; conditions: ref Yang et al., 2022, cited from earlier work
# [1] = 0.6 mg/kg/day, end of dosing phase, 10 examined
# [2] = 1.2 mg/kg/day, end of dosing phase, 10 examined
# [3] = 2.4 mg/kg/day, end of dosing phase, 9 examined
compound,measurement,setting,value
Fc1ccc([C@]2(CCNCc3cccc(Cl)c3)CCO[C@]3(CCOC3)C2)nc1 [LPM3480392],"Epididymis: Cell debris, lumen, Grade: 1 (minimal), animals",Sprague Dawley (SD) rats; [1],0
same,"Epididymis: Cell debris, lumen, Grade: 3 (moderate), animals",Sprague Dawley (SD) rats; [1],0
same,"Epididymis: Cell debris, lumen, Total Incidence",Sprague Dawley (SD) rats; [1],0
same,"Epididymis: Sperm, decreased, lumen, Grade: 4 (marked), animals",Sprague Dawley (SD) rats; [1],0
same,"Epididymis: Sperm, decreased, lumen, Total Incidence",Sprague Dawley (SD) rats; [1],0
same,"Testis: Degeneration, tubule, Grade: 2 (mild), animals",Sprague Dawley (SD) rats; [1],0
same,"Testis: Degeneration, tubule, Total Incidence",Sprague Dawley (SD) rats; [1],0
same,"Epididymis: Cell debris, lumen, Grade: 1 (minimal), animals",Sprague Dawley (SD) rats; [2],0
same,"Epididymis: Cell debris, lumen, Grade: 3 (moderate), animals",Sprague Dawley (SD) rats; [2],0
same,"Epididymis: Cell debris, lumen, Total Incidence",Sprague Dawley (SD) rats; [2],0
same,"Epididymis: Sperm, decreased, lumen, Grade: 4 (marked), animals",Sprague Dawley (SD) rats; [2],0
same,"Epididymis: Sperm, decreased, lumen, Total Incidence",Sprague Dawley (SD) rats; [2],0
same,"Testis: Degeneration, tubule, Grade: 2 (mild), animals",Sprague Dawley (SD) rats; [2],0
same,"Testis: Degeneration, tubule, Total Incidence",Sprague Dawley (SD) rats; [2],0
same,"Epididymis: Cell debris, lumen, Grade: 1 (minimal), animals",Sprague Dawley (SD) rats; [3],1
same,"Epididymis: Cell debris, lumen, Grade: 3 (moderate), animals",Sprague Dawley (SD) rats; [3],1
same,"Epididymis: Cell debris, lumen, Total Incidence",Sprague Dawley (SD) rats; [3],2
same,"Epididymis: Sperm, decreased, lumen, Grade: 4 (marked), animals",Sprague Dawley (SD) rats; [3],1
same,"Epididymis: Sperm, decreased, lumen, Total Incidence",Sprague Dawley (SD) rats; [3],1
same,"Testis: Degeneration, tubule, Grade: 2 (mild), animals",Sprague Dawley (SD) rats; [3],1
same,"Testis: Degeneration, tubule, Total Incidence",Sprague Dawley (SD) rats; [3],1
same,"Microscopic changes in brain, heart, liver, spleen, lungs, kidney, adrenal gland, thymus, lymph node, gastrointestinal tract",Sprague Dawley (SD) rats; end of dosing phase and recovery phase,no microscopic changes
same,"Mild tubular degeneration of the testis, incidence","Sprague Dawley (SD) rats; males, 2.4 mg/kg/day, end of dosing phase",1/9
same,"Emax, in vitro biased agonism",µ-opioid receptor (MOR),91.4%
same,EC50,"µ-opioid receptor (MOR); read-out: EC50, in vitro biased agonism",0.35 nM
